# According to article PMC10056443, “Derivatives of Amaryllidaceae Alkaloid Ambelline as Selective Inhibitors of Hepatic Stage of Plasmodium berghei Infection In Vitro” (Pharmaceutics, 2023):
# Read-outs that look alike come from different tables or passages of the source.
# Columns and labels:
# [1] = test system: HepG2 cells; experiment: Cytotoxicity assessment in vitro (MTT assay); assay type: cell-based
# How it was run: (§1)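 Human HepG2 hepatocellular carcinoma cells (passage 20–25) were treated with compound at 10 μM in triplicate for 24 h at 37 °C, 5% CO2. Viability was then measured by MTT: 3 h incubation, formazan dissolved in DMSO, absorbance read at 570 nm.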
# [2] = Cytotoxicity assessment in vitro (MTT assay); assay type: cell-based; conditions: human
# How it was run: as §1
# [3] = test system: Huh-7 cell line; experiment: Huh-7 cell confluency by alamarBlue assay during hepatic-stage test; assay type: cell-based
# How it was run: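 Huh-7 human hepatoma cells pre-treated with compound in infection medium 1 h before luciferase-expressing P. berghei sporozoites were added (1:1, 1 × 10^4 per well), then incubated 46 h at 37 °C, 5% CO2. Confluency assessed indirectly by alamarBlue; IC50 from nonlinear-regression fit of normalized dose-response curves.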
# [4] = test system: hepatic stage of P. berghei; experiment: In vitro activity against P. berghei hepatic stages (luciferase-expressing sporozoites in Huh-7 cells, bioluminescence); assay type: cell-based, Plasmodium berghei; conditions: Plasmodium berghei; for activity at 1 µM / activity at 10 µM: Huh-7, 48 h, DMSO = 100, read-out: INFECTION Ø screening
# How it was run: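 Huh-7 hepatoma cells pretreated with compounds 1 h, then infected with luciferase-expressing P. berghei sporozoites (1 × 10^4/well, 1:1 ratio) and incubated at 37 °C.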
# [5] = test system: P. falciparum NF54 ring-stage synchronized cultures; experiment: In vitro activity against P. falciparum blood stages (flow cytometry, SYBR green I); assay type: cell-based, Plasmodium falciparum; conditions: Control = 7.76333, 48 h
# Protocol: Activity against the blood stage of P. falciparum infection was assessed by flow cytometry analysis following the incubation of either test compounds or the drug vehicle (DMSO) with ring-stage synchronized parasite cultures, as previously described. Stock solutions of the test compounds, as well as of the positive control compound chloroquine, were prepared in DMSO and diluted to test concentrations in complete malaria culture medium (CMCM), i.e., 1640 RPMI medium supplemented with 25 mM HEPES, 2.4 mM L-glutamine, 50 µg/mL gentamicin, 0.5% w/v Albumax, 11 mM glucose, 1.47 mM hypoxanthine, and 37.3 mM NaHCO3. Samples at tested concentration were then incubated with ring-stage synchronized cultures of P. falciparum NF54 at 2.5% hematocrit and at approximately 1% parasitemia in 96-well plates at 37 °C in a 5% CO2 and 5% O2 atmosphere. Forty-eight hours post incubation, parasite load was assessed by flow cytometry, upon staining with the DNA-specific dye SYBR green I. Approximately 100,000 events were analyzed in each flow cytometry measurement.
# [6] = Huh-7, mean, unit (Table 1: µM), read-out: Antiplasmodial activity - Ø IC50
# [7] = Huh-7, replicate 1, unit (Table 1: µM), read-out: Antiplasmodial activity - IC50 determination, 1. measurement
# [8] = Huh-7, replicate 2, unit (Table 1: µM), read-out: Antiplasmodial activity - IC50 determination, 2. measurement
# [9] = Huh-7, replicate 3, unit (Table 1: µM), read-out: Antiplasmodial activity - IC50 determination, 3. measurement
# [10] = hepatic stage, Huh-7 cells, parasite load 48 h post-infection, read-out: IC50 P. berghei
Structure (SMILES),activity at 1 µM [4] [%],activity at 10 µM [4] [%],"IC50 [4, 6] [µM]","IC50 [4, 7] [µM]","IC50 [4, 8] [µM]","IC50 [4, 9] [µM]","IC50 [4, 10] [µM]","Ø screening, blood stage parasite load ([5]; at 10 nM)","Ø screening, blood stage parasite load ([5]; at 500 nM)","Ø screening, blood stage parasite load ([5]; at 100 nm)","1. screening of cytotoxic potential, HepG2 cell line ([1]; human, 24 h, 10 µM)","2. screening of cytotoxic potential, HepG2 cell line ([1]; human, 24 h, 10 µM)","3. screening of cytotoxic potential, HepG2 cell line ([1]; human, 24 h, 10 µM)","Ø screening, HepG2 (sheet Graphs) ([1]; human, 24 h, 10 µM)","viability at 24 h, 10 µM [2] [%]","CELL CONFLUENCY Ø screening ([3]; human, 46 h, 1 µM, pH 7)","CELL CONFLUENCY Ø screening ([3]; human, 46 h, 10 µM, pH 7)",further results
"COc1c2c(cc3c1OCO3)[C@]13C=C[C@H](OC)C[C@H]1N(C2)C[C@H]3OC(=O)c1cc(C)cc(C)c1 [28h, 11-O-(3,5-Dimethylbenzoyl)ambelline]",8.82,0.852,0.1,0.0992,0.0828,0.118,0.1 ± 0.018,8.137,6.735,6.763,–,–,–,–,–,–,–,"Ø screening, HepG2 (sheet Graphs) ([1]; c = 10 μM, DMSO = 100, in %): 74.24; 1. screening of cytotoxic potential, HepG2 cell line ([1]; c = 10 μM, replicate 1, in %): 61.45; 2. screening of cytotoxic potential, HepG2 cell line ([1]; c = 10 μM, replicate 2, in %): 88.22; 3. screening of cytotoxic potential, HepG2 cell line ([1]; c = 10 μM, replicate 3, in %): 73.05; viability at 24 h, 10 µM ([2]; c = 10 µM, 24 h, MTT, read-out: HepG2 % of cell viability compared to non-treated control (100%)): 74 ± 13%; CELL CONFLUENCY Ø screening ([3]; at 1 μM, DMSO = 100, in % (unit assumed)): 93.78; CELL CONFLUENCY Ø screening ([3]; at 10 μM, DMSO = 100, in % (unit assumed)): 54.73"
"CCCCC(=O)O[C@@H]1CN2Cc3c(cc4c(c3OC)OCO4)[C@@]13C=C[C@H](OC)C[C@@H]23 [28d, 11-O-Pentanoylambelline]",93.9,25.2,4.08,5.65,2.14,4.44,4.08 ± 1.78,6.99,6.78,7.043,73.78,63.13,76.88,71.26,71 ± 7,95.31,93.14,–
"COc1c2c(cc3c1OCO3)[C@]13C=C[C@H](OC)C[C@H]1N(C2)C[C@H]3OC(=O)c1cccc([N+](=O)[O-])c1 [28p, 11-O-(3-Nitrobenzoyl)ambelline]",48.1,1.45,1.53,1.46,1.36,1.78,1.53 ± 0.22,4.593,4.517,4.83,70.36,72.83,81.93,75.04,75 ± 6,87.05,79.58,–
"COc1c2c(cc3c1OCO3)[C@]13C=C[C@H](OC)C[C@H]1N(C2)C[C@H]3OC(=O)c1ccc(C)cc1 [28g, 11-O-(4-Methylbenzoyl)ambelline]",23.1,0.21,0.402,0.345,0.46,–,0.402 ± 0.081,5.187,4.26,4.963,50.18,56.25,43.46,49.96,50 ± 6,89.36,93.96,–
"COc1c2c(cc3c1OCO3)[C@]13C=C[C@H](OC)C[C@H]1N(C2)C[C@H]3OC(=O)c1ccc(C)c([N+](=O)[O-])c1 [28r, 11-O-(4-Methyl-3-nitrobenzoyl)ambelline]",22.2,1.01,0.41,0.358,0.408,0.465,0.41 ± 0.054,8.177,7.467,7.743,69.43,55.1,69.8,64.78,65 ± 8,94.75,52.08,–
